Data from patent publication US20120149080A1, “YEAST PRODUCTION CULTURE FOR THE PRODUCTION OF BUTANOL” (Butamax(TM) Advanced Biofuels LLC, priority 2010, published 2012).

Legend:
Assay in all cases: 24 h survival (CFU) of non-Saccharomyces yeast, HCD/LCD
Format in all cases: cell-based
Conditions in all cases: for Percent Survival HCD: high cell density; for Percent Survival LCD: low cell density
[1] = system: Pichia membranifaciens PNY0572
Description: (§1) Non-Saccharomyces yeast strains were tested to determine whether isobutanol tolerance is affected by cell density for these yeasts. Kluyveromyces marxianus PNY0577 (American Type Culture Collection (“ATCC”), Manassas, Va.; ATCC #8554), Kluyveromyces marxians PNY0578 (ATCC #16045), Pichia membranifaciens PNY0572, Pichia anomala PNY0573, Pichia sp. PNY0574, Issatchenkia orientalis PNY0575 and Issatchenkia orientalis PNY0576 were tested. The Pichia and Issatchenkia strains used are wild-type representatives of the designated genera. Other representative strains are commercially available, for example, from ATCC.
(§2) The non-Saccharomyces yeast strains were plated from freezer vials onto YPD agar (Teknova, Hollister, Calif.) and incubated overnight at 30° C. Cells from each strain from the YPD plates were inoculated into a 25 ml pre-culture of YPD broth) (Teknova, Hollister, Calif.) with an initial OD600 of 0.06 to 0.08 and grown for 7 hours in an aerobic shaker at 30° C. An aliquot of each pre-culture was inoculated into 200 ml YPD broth, to provide an initial OD600 of 0.06 to 0.08 and the resulting culture was incubated with aeration at 30° C. for approximately 17 hours. The optical density of the culture was measured, the culture was centrifuged and the cells were resuspended to yield an OD600 of 5 in fresh YPD broth. This is referred to as a high cell density (HCD) culture. This culture was diluted 100 fold into fresh YPD broth to give a culture with an OD600 of 0.05. This is referred to as a low cell density (LCD) culture. These cultures were incubated at 30° C. with shaking for 30 minutes for an acclimation period. At the end of the 30 minute acclimation period, the OD600 was measured.
(§3) 5 ml of low or high cell density culture was dispensed to 15 ml conical tubes which contained the concentrations of isobutanol to be tested. The tubes were placed in a rotary drum at 30° C. and incubated for 24 hours. The isobutanol concentration was 1.0% or 2.0%. A control culture for each strain contained no isobutanol. The time of addition of cells was “time 0”. […] All samples were filtered with Acrodisc CR PTFE 0.2 μm filters (Pall Life Sciences, Port Washington, N.Y.) and analyzed using a Shodex SH1011 column (8 mm ID×300 mm length; Showa Denko America, Inc., New York, N.Y.) and a Shodex SH-G as a guard column. The injection volume was 10 μL. The mobile phase was 0.01N sulfuric acid. The column temperature was 50° C. with a mobile phase flow rate of 0.5 mL/min. For detection, a photometric detector at 210 nm and a refractive index detector were used.
(§4) Colony forming units (CFUs) were determined on YPD plates at time 0 for the controls and at 24 hours for all samples, including the control cultures, using standard microbiological methods. Essentially, cells were serially diluted in a microtiter plate (20 μl of the culture and 180 μl of YPD broth) and 10 μl of the various dilutions were spotted onto triplicate agar plates and incubated at 30° C. for 24 and 48 hours. Colonies were counted after 48 hours and CFUs/ml were calculated. The percent survival was calculated based on the CFUs/ml of the 24 hour HCD or LCD control culture for each strain and results are given in Table 3.

[2] = system: Kluyveromyces marxianus PNY0578
Description: as §1, §2, §3, §4

[3] = system: Pichia sp. PNY0574
Description: as §1, §2, §3, §4

[4] = system: Issatchenkia orientalis PNY0575
Description: as §1, §2, §3, §4

[5] = system: Pichia anomala PNY0573
Description: as §1, §2, §3, §4

[6] = system: Issatchenkia orientalis PNY0576
Description: as §1, §2, §3, §4

[7] = system: Kluyveromyces marxianus PNY0577
Description: as §1, §2, §3, §4

CC(C)CO [Isobutanol, isobutanol]
Percent Survival HCD ([1]; PNY0572, 1% isobutanol): 80.6% | Percent Survival LCD ([1]; PNY0572, 1% isobutanol): 2.7% | Percent Survival HCD ([1]; PNY0572, 2% isobutanol): <0.001% | Percent Survival LCD ([1]; PNY0572, 2% isobutanol): <0.001% | Percent Survival HCD ([2]; PNY0578, 1% isobutanol): 51% | Percent Survival LCD ([2]; PNY0578, 1% isobutanol): <0.001% | Percent Survival HCD ([2]; PNY0578, 2% isobutanol): <0.001% | Percent Survival LCD ([2]; PNY0578, 2% isobutanol): <0.001% | Percent Survival HCD ([3]; PNY0574, 1% isobutanol): 100% | Percent Survival LCD ([3]; PNY0574, 1% isobutanol): 10% | Percent Survival HCD ([3]; PNY0574, 2% isobutanol): 100% | Percent Survival LCD ([3]; PNY0574, 2% isobutanol): 0.5% | Percent Survival HCD ([4]; PNY0575, 1% isobutanol): 61.3% | Percent Survival LCD ([4]; PNY0575, 1% isobutanol): 3.1% | Percent Survival HCD ([4]; PNY0575, 2% isobutanol): <0.001% | Percent Survival LCD ([4]; PNY0575, 2% isobutanol): <0.001% | Percent Survival HCD ([5]; PNY0573, 1% isobutanol): 75.6% | Percent Survival LCD ([5]; PNY0573, 1% isobutanol): 0.1% | Percent Survival HCD ([5]; PNY0573, 2% isobutanol): <0.001% | Percent Survival LCD ([5]; PNY0573, 2% isobutanol): <0.001% | Percent Survival HCD ([6]; PNY0576, 1% isobutanol): 50% | Percent Survival LCD ([6]; PNY0576, 1% isobutanol): 12.8% | Percent Survival HCD ([6]; PNY0576, 2% isobutanol): <0.001% | Percent Survival LCD ([6]; PNY0576, 2% isobutanol): <0.001% | Percent Survival HCD ([7]; PNY0577, 1% isobutanol): 39.5% | Percent Survival LCD ([7]; PNY0577, 1% isobutanol): 0.1% | Percent Survival HCD ([7]; PNY0577, 2% isobutanol): <0.001% | Percent Survival LCD ([7]; PNY0577, 2% isobutanol): <0.001%
